Data: US20020035061A1, “COMPOSITIONS AND METHODS FOR TREATING INFECTIONS USING CATIONIC PEPTIDES ALONE OR IN COMBINATION WITH ANTIBIOTICS” (priority 1996, published 2002)

Test system: bacterial isolates
Assay: microbe, parasite or virus in culture
Assay type: cell-based

KKWWRRALQGLKTAGPAIQSVLNK [MBI 21A2]
Peptide MIC Alone (1. Amikacin, A. baumannii ABI001): 8 µg/mL | Peptide MIC Alone (1. Amikacin, A. baumannii ABI003): 8 µg/mL | Peptide MIC Alone (1. Amikacin, E. faecalis EFS008): >128 µg/mL | Peptide MIC Alone (1. Amikacin, E. faecium EFM004): >128 µg/mL | Peptide MIC Alone (1. Amikacin, P. aeruginosa PA022): 8 µg/mL | Peptide MIC Alone (1. Amikacin, S. aureus SA025 MRSA): 2 µg/mL | Peptide MIC Alone (1. Amikacin, S. epidermidis SE003): >128 µg/mL | Peptide MIC Alone (1. Amikacin, S. maltophilia SMA018): 16 µg/mL | Peptide MIC Alone (1. Amikacin, S. maltophilia SMA022): >128 µg/mL | Peptide MIC Alone (3. Ciprofloxacin, P. aeruginosa PA4): >128 µg/mL | Peptide MIC Alone (3. Ciprofloxacin, P. aeruginosa PA41): 64 µg/mL | Peptide MIC Alone (3. Ciprofloxacin, S. aureus SA25): 16 µg/mL | Peptide MIC Alone (3. Ciprofloxacin, S. aureus SA93): 16 µg/mL | Peptide MIC Alone (4. Gentamicin, A. baumannii ABI002): 8 µg/mL | Peptide MIC Alone (4. Gentamicin, P. aeruginosa PA022): 8 µg/mL | Peptide MIC Alone (4. Gentamicin, S. aureus SA025 MRSA): 8 µg/mL | Peptide MIC Alone (4. Gentamicin, S. maltophilia SMA019): 16 µg/mL | Peptide MIC Alone (4. Gentamicin, S. maltophilia SMA020): 16 µg/mL | Peptide MIC Alone (4. Gentamicin, S. maltophilia SMA021): 16 µg/mL | Amikacin MIC + Peptide (A. baumannii ABI001): 32 µg/mL | Peptide MIC + Amikacin (A. baumannii ABI001): 0.125 µg/mL | Gentamicin MIC + Peptide (A. baumannii ABI002): 16 µg/mL | Peptide MIC + Gentamicin (A. baumannii ABI002): 0.5 µg/mL | Amikacin MIC + Peptide (A. baumannii ABI003): 8 µg/mL | Peptide MIC + Amikacin (A. baumannii ABI003): 4 µg/mL | Peptide MIC + Piperacillin (E. coli 1): 2 µg/mL | Piperacillin MIC + Peptide (E. coli 1): 8 µg/mL | Peptide MIC Alone (E. coli 1, Piperacillin section): 4 µg/mL | Amikacin MIC + Peptide (E. faecalis EFS008): 32 µg/mL | Peptide MIC + Amikacin (E. faecalis EFS008): 0.125 µg/mL | Amikacin MIC + Peptide (E. faecium EFM004): 64 µg/mL | Peptide MIC + Amikacin (E. faecium EFM004): 16 µg/mL | Peptide MIC + Piperacillin (H. influenzae 1): 64 µg/mL | Piperacillin MIC + Peptide (H. influenzae 1): 4 µg/mL | Peptide MIC Alone (H. influenzae 1, Piperacillin section): >128 µg/mL | Peptide MIC + Piperacillin (H. influenzae 2): 32 µg/mL | Piperacillin MIC + Peptide (H. influenzae 2): 32 µg/mL | Peptide MIC Alone (H. influenzae 2, Piperacillin section): >128 µg/mL | Peptide MIC + Piperacillin (P. aeruginosa 23): 16 µg/mL | Piperacillin MIC + Peptide (P. aeruginosa 23): 8 µg/mL | Peptide MIC Alone (P. aeruginosa 23, Piperacillin section): >128 µg/mL | Ciprofloxacin MIC + Peptide (P. aeruginosa PA4): 0.125 µg/mL | Peptide MIC + Ciprofloxacin (P. aeruginosa PA4): 64 µg/mL | Amikacin MIC + Peptide (P. aeruginosa PA022): 16 µg/mL | Gentamicin MIC + Peptide (P. aeruginosa PA022): 8 µg/mL | Peptide MIC + Amikacin (P. aeruginosa PA022): 2 µg/mL | Peptide MIC + Gentamicin (P. aeruginosa PA022): 2 µg/mL | Ciprofloxacin MIC + Peptide (P. aeruginosa PA41): 1 µg/mL | Peptide MIC + Ciprofloxacin (P. aeruginosa PA41): 16 µg/mL | Peptide MIC + Piperacillin (S. aureus 19 MRSA): 2 µg/mL | Piperacillin MIC + Peptide (S. aureus 19 MRSA): 64 µg/mL | Peptide MIC Alone (S. aureus 19 MRSA, Piperacillin section): >128 µg/mL | Ciprofloxacin MIC + Peptide (S. aureus SA25): 0.5 µg/mL | Peptide MIC + Ciprofloxacin (S. aureus SA25): 4 µg/mL | Amikacin MIC + Peptide (S. aureus SA025 MRSA): 2 µg/mL | Gentamicin MIC + Peptide (S. aureus SA025 MRSA): 32 µg/mL | Peptide MIC + Amikacin (S. aureus SA025 MRSA): 1 µg/mL | Peptide MIC + Gentamicin (S. aureus SA025 MRSA): 1 µg/mL | Ciprofloxacin MIC + Peptide (S. aureus SA93): 8 µg/mL | Peptide MIC + Ciprofloxacin (S. aureus SA93): 2 µg/mL | Peptide MIC + Piperacillin (S. aureus SB2MRSA): 2 µg/mL | Piperacillin MIC + Peptide (S. aureus SB2MRSA): 64 µg/mL | Peptide MIC Alone (S. aureus SB2MRSA, Piperacillin section): 32 µg/mL | Amikacin MIC + Peptide (S. epidermidis SE003): 4 µg/mL | Peptide MIC + Amikacin (S. epidermidis SE003): 64 µg/mL | Peptide MIC + Piperacillin (S. maltophilia 6): 16 µg/mL | Piperacillin MIC + Peptide (S. maltophilia 6): 64 µg/mL | Peptide MIC Alone (S. maltophilia 6, Piperacillin section): 128 µg/mL | Peptide MIC + Piperacillin (S. maltophilia 14): 16 µg/mL | Piperacillin MIC + Peptide (S. maltophilia 14): 4 µg/mL | Peptide MIC Alone (S. maltophilia 14, Piperacillin section): 32 µg/mL | Amikacin MIC + Peptide (S. maltophilia SMA018): 64 µg/mL | Peptide MIC + Amikacin (S. maltophilia SMA018): 4 µg/mL | Gentamicin MIC + Peptide (S. maltophilia SMA019): 16 µg/mL | Peptide MIC + Gentamicin (S. maltophilia SMA019): 4 µg/mL | Gentamicin MIC + Peptide (S. maltophilia SMA020): 16 µg/mL | Peptide MIC + Gentamicin (S. maltophilia SMA020): 4 µg/mL | Gentamicin MIC + Peptide (S. maltophilia SMA021): 16 µg/mL | Peptide MIC + Gentamicin (S. maltophilia SMA021): 4 µg/mL | Amikacin MIC + Peptide (S. maltophilia SMA022): 32 µg/mL | Peptide MIC + Amikacin (S. maltophilia SMA022): 32 µg/mL | Peptide MIC + Piperacillin (S. marcescens 1): 4 µg/mL | Piperacillin MIC + Peptide (S. marcescens 1): 16 µg/mL | Peptide MIC Alone (S. marcescens 1, Piperacillin section): >128 µg/mL | FIC (peptide + Amikacin, A. baumannii ABI001): 0.52 | FIC (peptide + Amikacin, A. baumannii ABI003): 0.52 | FIC (peptide + Amikacin, E. faecalis EFS008): 0.50 | FIC (peptide + Amikacin, E. faecium EFM004): 0.56 | FIC (peptide + Amikacin, P. aeruginosa PA022): 0.50 | FIC (peptide + Amikacin, S. aureus SA025 MRSA): 0.56 | FIC (peptide + Amikacin, S. epidermidis SE003): 0.38 | FIC (peptide + Amikacin, S. maltophilia SMA018): 0.50 | FIC (peptide + Amikacin, S. maltophilia SMA022): 0.25 | FIC (peptide + Ciprofloxacin, P. aeruginosa PA4): 0.50 | FIC (peptide + Ciprofloxacin, P. aeruginosa PA41): 0.50 | FIC (peptide + Ciprofloxacin, S. aureus SA25): 0.50 | FIC (peptide + Ciprofloxacin, S. aureus SA93): 0.38 | FIC (peptide + Gentamicin, A. baumannii ABI002): 0.56 | FIC (peptide + Gentamicin, P. aeruginosa PA022): 0.50 | FIC (peptide + Gentamicin, S. aureus SA025 MRSA): 0.63 | FIC (peptide + Gentamicin, S. maltophilia SMA019): 0.50 | FIC (peptide + Gentamicin, S. maltophilia SMA020): 0.50 | FIC (peptide + Gentamicin, S. maltophilia SMA021): 0.50 | FIC (peptide + Piperacillin, E. coli 1): 0.53 | FIC (peptide + Piperacillin, H. influenzae 1): 0.31 | FIC (peptide + Piperacillin, H. influenzae 2): 0.38 | FIC (peptide + Piperacillin, P. aeruginosa 23): 0.19 | FIC (peptide + Piperacillin, S. aureus 19 MRSA): 0.51 | FIC (peptide + Piperacillin, S. aureus SB2MRSA): 0.56 | FIC (peptide + Piperacillin, S. maltophilia 6): 0.38 | FIC (peptide + Piperacillin, S. maltophilia 14): 0.53 | FIC (peptide + Piperacillin, S. marcescens 1): 0.27
